These results are taken from patent publication US9074014B2 (Ipsen Pharma S.A.S., priority 2008, dated 2015).

pKi: −log10 of the molar value. Where a SMILES comes first, the peptide text is derived from it. Where no end group is shown, it is not given here. [ ]: non-standard residue; d: D form. Ac6c = NC1(C(=O)O)CCCCC1; Nle = CCCC[C@H](N)C(=O)O; Ac5c = NC1(C(=O)O)CCCC1; Aib = CC(C)(N)C(=O)O

Series [1] is described as follows: Rat plasma half-life assay. Type of series: in vitro ADME. The note with it: rat plasma, 37° C., LC-MS; read-out: Rat Plasma T½ (converted).
Series [2] is described as follows: Human plasma half-life assay. Type of series: in vitro ADME. The note with it: human plasma, 37° C., LC-MS; read-out: Human Plasma T½ (converted).
Series [3] can be described thus: In vivo insulin secretion in normal rats. On the set-up: species or system Sprague Dawley rats. The note with it: fasted male rats, iv compound with glucose 1 g/kg, samples to 20 minutes. As for the experimental part:
D. Determination of In Vivo Insulin Secretion in Normal Rats
Male Sprague Dawley rats with a body weight of approximately 275-300 g were used as experimental subjects. The day prior to the treatment, right atrial cannulae were implanted via the jugular vein under chlorohydrate. Each cannula was filled with 100 u/ml heparin saline and tied. The rats were fasted for approximately 18 hours prior to dosing with the compound or the vehicle (saline/0.25% BSA). The day of the experiment, aliquots of compound were thawed, brought to room temperature and vortexed thoroughly. A careful check was made for any sign of compound coming out of solution. 10 minutes prior to compound/glucose injection, a 500 μl blood sample was withdrawn and replaced with an equal volume of heparinized saline (10 u/ml). At time 0, a 500 μl blood sample was withdrawn through the cannula. Next, either the vehicle or the appropriate dose of the compound was injected into the cannula and pushed in with the glucose (1 g/kg) or vehicle solution. Finally, 500 μl of volume of heparinized saline (10 u/ml) was used to push in the remaining glucose through the cannula. Additional 500 μl blood samples were withdrawn at 2.5, 5, 10, and 20-minute post-glucose dosing; each immediately followed by a bolus, iv injection of 500 μl heparinized saline (10 u/ml) through the cannula. The plasma was collected from the blood samples by centrifugation, and stored at −20° C. until assay for insulin content. Numerical values of the total insulin secretion, which show the in vivo effects of the compounds of Examples 105, 106, 118, and 119, are summarized in Table 3.

In series [4] the target is T1, human recombinant GIP receptor (Homo sapiens, UniProt P48546).
T1 construct: expressed in transfected cells; host or cells: CHO-K1 clonal cells (membranes)
T1 sequence (P48546 22-466): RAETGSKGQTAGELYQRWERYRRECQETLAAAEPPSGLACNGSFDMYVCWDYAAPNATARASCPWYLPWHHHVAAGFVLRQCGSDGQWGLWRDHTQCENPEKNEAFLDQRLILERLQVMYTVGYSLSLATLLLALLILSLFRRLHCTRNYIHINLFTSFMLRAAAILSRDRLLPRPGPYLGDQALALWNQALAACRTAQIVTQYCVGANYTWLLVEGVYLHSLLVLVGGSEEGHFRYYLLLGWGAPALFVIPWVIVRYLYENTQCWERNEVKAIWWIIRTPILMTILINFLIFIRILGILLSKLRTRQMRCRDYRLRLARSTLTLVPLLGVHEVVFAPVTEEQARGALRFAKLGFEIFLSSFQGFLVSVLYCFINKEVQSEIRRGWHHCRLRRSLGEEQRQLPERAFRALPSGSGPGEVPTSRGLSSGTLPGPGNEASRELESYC
The series is described as follows: In vitro hGIP receptor binding assay ([125I]GIP displacement, CHO-K1 membranes). An excerpt: A. In Vitro hGIP Receptor Binding Assay

On to `CC[C@H](C)[C@H](NC(=O)[C@H](CCCCN)NC(=O)[C@H](CC(=O)O)NC(=O)[C@H](CCSC)NC(=O)[C@H](C)NC(=O)[C@@H](NC(=O)C1(NC(=O)[C@H](Cc2ccc(O)cc2)NC(=O)[C@H](CC(=O)O)NC(=O)[C@H](CO)NC(=O)[C@@H](NC(=O)[C@H](Cc2ccccc2)NC(=O)[C@@H](NC(=O)CNC(=O)[C@H](CCC(=O)O)NC(=O)[C@@H](C)NC(=O)[C@@H](N)Cc2ccc(O)cc2)[C@@H](C)O)[C@@H](C)CC)CCCC1)[C@@H](C)CC)C(=O)N[C@@H](Cc1c[nH]cn1)C(=O)N[C@@H](CCC(N)=O)C(=O)N[C@@H](CCC(N)=O)C(=O)N[C@@H](CC(=O)O)C(=O)N[C@@H](Cc1ccccc1)C(=O)N[C@H](C(=O)N[C@@H](CC(N)=O)C(=O)N[C@@H](Cc1c[nH]c2ccccc12)C(=O)N[C@@H](CC(C)C)C(=O)N[C@@H](CC(C)C)C(=O)N[C@@H](C)C(=O)N[C@@H](CCC(N)=O)C(=O)N[C@@H](CCCCN)C(=O)NCC(=O)N[C@@H](CCCCN)C(=O)N[C@@H](CCCCN)C(=O)N[C@@H](CC(N)=O)C(=O)N[C@@H](CC(=O)O)C(=O)N[C@@H](Cc1c[nH]c2ccccc12)C(=O)N[C@@H](CCCCN)C(=O)N[C@@H](Cc1c[nH]cn1)C(=O)N[C@@H](CC(N)=O)C(=O)N[C@H](C(=O)N[C@H](C(=O)N[C@@H](CCC(N)=O)C(=O)N[C@@H](Cc1c[nH]cn1)C(=O)O)[C@@H](C)O)[C@@H](C)CC)C(C)C` [Example 105, (D-Ala^2, A5c^11, His^43)hGIP(1-43)-OH], for which the half-life at 0.1 mg/ml is 6.9 h in series [1] and 19.1 h in series [2]. The “AUC (total insulin secretion)” value in series [3] is recorded as 114.70.

For orientation: pKi means −log10 of the Ki, conventionally taken in molar units. As for `CC[C@H](C)[C@H](NC(=O)[C@H](CCCCN)NC(=O)[C@H](CC(=O)O)NC(=O)[C@H](CCSC)NC(=O)C(C)(C)NC(=O)[C@@H](NC(=O)[C@H](CO)NC(=O)[C@H](Cc1ccc(O)cc1)NC(=O)[C@H](CC(=O)O)NC(=O)[C@H](CO)NC(=O)[C@@H](NC(=O)[C@H](Cc1ccccc1)NC(=O)[C@@H](NC(=O)CNC(=O)[C@H](CCC(=O)O)NC(=O)C(C)(C)NC(=O)[C@@H](N)Cc1ccc(O)cc1)[C@@H](C)O)[C@@H](C)CC)[C@@H](C)CC)C(=O)N[C@@H](Cc1c[nH]cn1)C(=O)N[C@@H](CCC(N)=O)C(=O)N[C@@H](CCC(N)=O)C(=O)N[C@@H](CC(=O)O)C(=O)N[C@@H](Cc1ccccc1)C(=O)N[C@H](C(=O)N[C@@H](CC(N)=O)C(=O)N[C@@H](Cc1c[nH]c2ccccc12)C(=O)N[C@@H](CC(C)C)C(=O)N[C@@H](CC(C)C)C(=O)N[C@@H](C)C(=O)N[C@@H](CCC(N)=O)C(=O)N[C@@H](CCCCN)C(=O)NCC(=O)N[C@@H](CCCCN)C(=O)N[C@@H](CCCCN)C(=O)N[C@@H](CC(N)=O)C(=O)N[C@@H](CC(=O)O)C(=O)N[C@@H](Cc1c[nH]c2ccccc12)C(=O)N[C@@H](CCCCN)C(=O)N[C@@H](Cc1c[nH]cn1)C(=O)N[C@@H](CC(N)=O)C(=O)N[C@H](C(=O)N[C@H](C(=O)N[C@@H](CCC(N)=O)C(=O)O)[C@@H](C)O)[C@@H](C)CC)C(C)C` [Example 60, (Aib^2, 13)hGIP(1-42)-OH], the figures for the half-life at 0.1 mg/ml in series [1] and in series [2] were 10.5 h and 26 h, respectively. Moreover, the negative logarithm of the Ki (pKi) in series [4] is 10.30.

Turning to `CCCC[C@H](NC(=O)[C@H](C)NC(=O)[C@@H](NC(=O)C1(NC(=O)[C@H](Cc2ccc(O)cc2)NC(=O)[C@H](CC(=O)O)NC(=O)[C@H](CO)NC(=O)[C@@H](NC(=O)[C@H](Cc2ccccc2)NC(=O)[C@@H](NC(=O)CNC(=O)[C@H](CCC(=O)O)NC(=O)[C@@H](C)NC(=O)[C@@H](N)Cc2ccc(O)cc2)[C@@H](C)O)[C@@H](C)CC)CCCC1)[C@@H](C)CC)C(=O)N[C@@H](CC(=O)O)C(=O)N[C@@H](CCCCN)C(=O)N[C@H](C(=O)N[C@@H](Cc1c[nH]cn1)C(=O)N[C@@H](CCC(N)=O)C(=O)N[C@@H](CCC(N)=O)C(=O)N[C@@H](CC(=O)O)C(=O)N[C@@H](Cc1ccccc1)C(=O)N[C@H](C(=O)N[C@@H](CC(N)=O)C(=O)N[C@@H](Cc1c[nH]c2ccccc12)C(=O)N[C@@H](CC(C)C)C(=O)N[C@@H](CC(C)C)C(=O)N[C@@H](C)C(=O)N[C@@H](CCC(N)=O)C(=O)N[C@@H](CCCCN)C(=O)NCC(=O)N[C@@H](CCCCN)C(=O)N[C@@H](CCCCN)C(=O)N[C@@H](CC(N)=O)C(=O)N[C@@H](CC(=O)O)C(=O)N[C@@H](Cc1c[nH]c2ccccc12)C(=O)N[C@@H](CCCCN)C(=O)N[C@@H](Cc1c[nH]cn1)C(=O)N[C@@H](CC(N)=O)C(=O)N[C@H](C(=O)N[C@H](C(=O)N[C@@H](CCC(N)=O)C(=O)N[C@@H](Cc1c[nH]cn1)C(=O)O)[C@@H](C)O)[C@@H](C)CC)C(C)C)[C@@H](C)CC` [Example 119, (D-Ala^2, A5c^11, Nle^14, His^43)hGIP(1-43)-OH], the half-life at 0.1 mg/ml in series [1] was 15.4 h; in series [2], 35.7 h. In series [3], the “AUC (total insulin secretion)” value amounted to 167.48.

For the compound “Y[Aib]EGTF[Ac6c]SDYSI[Aib][Nle]DKIHQQDFVNWLLAQKGKKNDWKHNITQ-OH [Example 21, (Aib^2, 13, A6c^7, Nle^14)hGIP(1-42)-OH]”, the half-life at 0.1 mg/ml in series [1] is 12.3 h; in series [2], > 48 h. The pKi in series [4] is 9.52.

Regarding “Y[dA]EGTFISDY[Ac5c]IAMDKIHQQDFVNWLLAQKGKKNDWKHNI[Ac5c]Q-OH [Example 106, (D-Ala^2, A5c^11, 41)hGIP(1-42)-OH]”, the half-life at 0.1 mg/ml is 9.2 h in series [1] and > 55 h in series [2]. The “AUC (total insulin secretion)” value in series [3] was 161.73.

Consider `CC[C@H](C)[C@H](NC(=O)[C@H](CCCCN)NC(=O)[C@H](CC(=O)O)NC(=O)C1(NC(=O)[C@H](C)NC(=O)[C@@H](NC(=O)C(C)(C)NC(=O)[C@H](Cc2ccc(O)cc2)NC(=O)[C@H](CC(=O)O)NC(=O)[C@H](CO)NC(=O)[C@@H](NC(=O)[C@H](Cc2ccccc2)NC(=O)[C@@H](NC(=O)CNC(=O)[C@H](CCC(=O)O)NC(=O)C(C)(C)NC(=O)[C@@H](N)Cc2ccc(O)cc2)[C@@H](C)O)[C@@H](C)CC)[C@@H](C)CC)CCCCC1)C(=O)N[C@@H](Cc1c[nH]cn1)C(=O)N[C@@H](CCC(N)=O)C(=O)N[C@@H](CCC(N)=O)C(=O)N[C@@H](CC(=O)O)C(=O)N[C@@H](Cc1ccccc1)C(=O)N[C@H](C(=O)N[C@@H](CC(N)=O)C(=O)N[C@@H](Cc1c[nH]c2ccccc12)C(=O)N[C@@H](CC(C)C)C(=O)N[C@@H](CC(C)C)C(=O)N[C@@H](C)C(=O)N[C@@H](CCC(N)=O)C(=O)N[C@@H](CCCCN)C(N)=O)C(C)C` [Example 38, (Aib^2, 11, A6c^14)hGIP(1-30)-NH2] (H-Y[Aib]EGTFISDY[Aib]IA[Ac6c]DKIHQQDFVNWLLAQK-NH2; N-terminus assumed), for which the half-life at 0.1 mg/ml was > 54 h in series [1] and 49.1 h in series [2]. Further, the pKi in series [4] is 9.14.

Take “Y[Aib]EGTF[Ac6c]SDYSIAMDKIHQQDFVNWLLAQKGKKNDWKHNI[Aib]Q-OH [Example 23, (Aib^2, 41, A6c^7)hGIP(1-42)-OH]”: the half-life at 0.1 mg/ml in series [1] was 6.7 h; in series [2], > 48 h. Also, the pKi in series [4] is 9.06.
